This assay concerns primary rat mixed cortical cells. In words: In vitro myelination assay (MBP positive myelin strands, fold myelin pixels above background). The assay is classed as cell-based. The following applies: Rattus norvegicus; for fold induction at 1 µM: 1.0 μM compound; for fold induction at 10 µM: 10.0 μM compound. The procedure, abridged: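 P1 rat cortical cells (neurons, OPCs, oligodendrocytes, astrocytes, microglia) were cultured 14 days at 37 °C with compound, with half-medium changes containing 1× compound on days 6 and 10. Fixed cells were immunostained for MBP and imaged at 10×. Total MBP myelin pixels per well were expressed as fold above no-compound baseline at 1.0 μM and 10.0 μM.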

[1] abbreviates: relative to baseline of no added compound, read-out: Fold myelin pixels above background, 1.0 μM.
The mark [2] stands for this setting: relative to baseline of no added compound, read-out: Fold myelin pixels above background, 10.0 μM.
Where [3] appears, read: read-out: Fold myelin pixels above background relative to baseline of no added compound.
Where [4] appears, read: relative to baseline of no added compound, read-out: Fold myelin pixels above background.

Our source for the fold induction values is patent US10766869B2, “Triazoles for the treatment of demyelinating dieases” (Vertex Pharmaceuticals Incorporated, priority 2015, dated 2020).

Where two headings read alike, the source gives them in different places.

Turning to `CC1CCN(c2cc(Nc3ncn(-c4cc(F)cc(F)c4)n3)cc(C3CC3)n2)CC1` [Compound 244, 2-cyclopropyl-N-[1-(3,5-difluorophenyl)-1,2,4-triazol-3-yl]-6-(4-methyl-1-piperidyl)pyridin-4-amine], under setting [1], the fold induction at 1 µM was 1 to 10. Further, the fold induction at 10 µM under setting [2] lay within 10 to 100.
On to `[2H]C1([2H])OC([2H])([2H])C([2H])([2H])N(c2cc(C)cc(Nc3ncn(-c4cc(F)cc(F)c4)n3)c2)C1([2H])[2H]` [Compound 982, 1-(3,5-difluorophenyl)-N-[3-methyl-5-(2,2,3,3,5,5,6,6-octadeuteriomorpholin-4-yl)phenyl]-1,2,4-triazol-3-amine], for which, under setting [3], the fold induction at 1 µM was 10 to 100 and the fold induction at 10 µM was not above 1.
As to `F[C@H]1CCN(c2cc(Nc3ncn(-c4ccccc4)n3)cc(C3CC3)n2)C1` [Compound 460, 2-cyclopropyl-6-[(3S)-3-fluoropyrrolidin-1-yl]-N-(1-phenyl-1,2,4-triazol-3-yl)pyridin-4-amine], under setting [4], the fold induction at 1 µM fell in the range of 100 to 1000 and the fold induction at 10 µM is 10 to 100.
Turning to `c1ccc(-n2cnc(Nc3cc(C4CC4)cc(N4CCN(C5COC5)CC4)c3)n2)cc1` [Compound 47, N-[3-cyclopropyl-5-[4-(oxetan-3-yl)piperazin-1-yl]phenyl]-1-phenyl-1,2,4-triazol-3-amine], the fold induction at 1 µM under setting [1] fell in the range of 100 to 1000. The fold induction at 10 µM under setting [2] was not above 1.
On to `CCc1cc(Nc2ncn(-c3ccc(C#N)cc3)n2)cc(N2CCN(C3COC3)CC2)c1` [Compound 762, 4-[3-[3-ethyl-5-[4-(oxetan-3-yl)piperazin-1-yl]anilino]-1,2,4-triazol-1-yl]benzonitrile], for which, under setting [4], the fold induction at 1 µM was not above 1 and the fold induction at 10 µM was not above 1.
On to `COc1cc(F)cc(-n2cnc(Nc3cc(C4CC4)cc(N4CCN(C5COC5)CC4)c3)n2)c1` [Compound 388, N-[3-cyclopropyl-5-[4-(oxetan-3-yl)piperazin-1-yl]phenyl]-1-(3-fluoro-5-methoxy-phenyl)-1,2,4-triazol-3-amine], for which, under setting [4], the fold induction at 1 µM was in the range of 10 to 100 and the fold induction at 10 µM is not above 1.
The matching figures for `Cc1cc(Nc2ncn(-c3cc(F)ccc3F)n2)cc(N2CCN(C3(C)COC3)CC2)c1` [Compound 469, 1-(2,5-difluorophenyl)-N-[3-methyl-5-[4-(3-methyloxetan-3-yl)piperazin-1-yl]phenyl]-1,2,4-triazol-3-amine]: 100 to 1000 and 10 to 100.
Turning to `Cc1cc(Nc2ncn(-c3ccccc3)n2)c(F)c(OC2CCOC2)c1` (stereo not drawn) [Compound 907, N-(2-fluoro-5-methyl-3-tetrahydrofuran-3-yloxy-phenyl)-1-phenyl-1,2,4-triazol-3-amine], under setting [3], the fold induction at 1 µM fell in the range of 10 to 100 and the fold induction at 10 µM was 100 to 1000.
In the case of `Fc1cc(F)cc(-n2cnc(Nc3cc(C4=CCOC4)cc(N4CCOCC4)c3)n2)c1` [Compound 298, 1-(3,5-difluorophenyl)-N-[3-(2,5-dihydrofuran-3-yl)-5-morpholino-phenyl]-1,2,4-triazol-3-amine], the fold induction at 1 µM under setting [1] lay within 1000 to 10000. For the same compound, the fold induction at 10 µM under setting [2] fell in the range of 100 to 1000.
Consider `Cc1cc(Nc2ncn(-c3cc(F)cc(F)c3)n2)cc(N2CC(N3C[C@@H](C)O[C@@H](C)C3)C2)c1` [Compound 618, 1-(3,5-difluorophenyl)-N-[3-[3-[(2R,6S)-2,6-dimethylmorpholin-4-yl]azetidin-1-yl]-5-methyl-phenyl]-1,2,4-triazol-3-amine], for which, under setting [4], the fold induction at 1 µM was 10 to 100 and the fold induction at 10 µM is 10 to 100.
`c1cncc(-n2cnc(Nc3cc(C4CCOCC4)cc(C4CCOCC4)c3)n2)c1` [Compound 250, N-[3,5-di(tetrahydropyran-4-yl)phenyl]-1-(3-pyridyl)-1,2,4-triazol-3-amine]: the fold induction at 1 µM under setting [1] is 100 to 1000. Also, the fold induction at 10 µM under setting [2] lay within 10 to 100.
Consider `Cc1cc(Nc2ncn(-c3cc(F)cc(F)c3)n2)cc(N2C3CCC2COC3)c1` [Compound 722, 1-(3,5-difluorophenyl)-N-[3-methyl-5-(3-oxa-8-azabicyclo[3.2.1]octan-8-yl)phenyl]-1,2,4-triazol-3-amine], for which, under setting [4], the fold induction at 1 µM is 10 to 100 and the fold induction at 10 µM was 10 to 100.
As to `CCc1cc(Nc2ncn(-c3ccc(C)cc3)n2)cc(N2CCN(C3COC3)CC2)c1` [Compound 31, N-[3-ethyl-5-[4-(oxetan-3-yl)piperazin-1-yl]phenyl]-1-(p-tolyl)-1,2,4-triazol-3-amine], the fold induction at 1 µM under setting [1] lay within 100 to 1000. Also, the fold induction at 10 µM under setting [2] lay in the range of 100 to 1000.
Take `Cc1cc(Nc2ncn(-c3cc(F)cc(F)c3)n2)nc(N2CCCC(O)C2)c1` (stereo not drawn) [Compound 755, 1-[6-[[1-(3,5-difluorophenyl)-1,2,4-triazol-3-yl]amino]-4-methyl-2-pyridyl]piperidin-3-ol]: under setting [4], the fold induction at 1 µM fell in the range of 1 to 10 and the fold induction at 10 µM lay within 10 to 100.
The matching figures for `Fc1cc(F)cc(-n2cnc(Nc3cc(N4CCN(C5COC5)CC4)cc(Cl)n3)n2)c1` [Compound 733, 6-chloro-N-[1-(3,5-difluorophenyl)-1,2,4-triazol-3-yl]-4-[4-(oxetan-3-yl)piperazin-1-yl]pyridin-2-amine]: 1 to 10 and 1 to 10.
As for `c1ccc(-n2cnc(Nc3cc(C4CC4)nc(N4CCOCC4)c3)n2)cc1` [Compound 222, 2-cyclopropyl-6-morpholino-N-(1-phenyl-1,2,4-triazol-3-yl)pyridin-4-amine], under setting [1], the fold induction at 1 µM lay within 100 to 1000. The fold induction at 10 µM under setting [2] lay in the range of 1 to 10.
As for `FC(F)c1cc(Nc2ncn(-c3cccc(C(F)(F)F)c3)n2)nc(N2CCN(C3COC3)CC2)c1` [Compound 680, 4-(difluoromethyl)-6-[4-(oxetan-3-yl)piperazin-1-yl]-N-[1-[3-(trifluoromethyl)phenyl]-1,2,4-triazol-3-yl]pyridin-2-amine], under setting [4], the fold induction at 1 µM lay within 10 to 100 and the fold induction at 10 µM lay within 10 to 100.
For the compound `CCC(CO)N1CCN(c2cc(C)cc(Nc3ncn(-c4cc(F)cc(F)c4)n3)c2)CC1` (stereo not drawn) [Compound 904, 2-[4-[3-[[1-(3,5-difluorophenyl)-1,2,4-triazol-3-yl]amino]-5-methyl-phenyl]piperazin-1-yl]butan-1-ol], under setting [3], the fold induction at 1 µM was not above 1 and the fold induction at 10 µM was not above 1.
Turning to `Fc1cc(Cl)cc(-n2cnc(Nc3cc(C4CC4)cc(N4CCN(C5COC5)CC4)c3)n2)c1` [Compound 400, 1-(3-chloro-5-fluoro-phenyl)-N-[3-cyclopropyl-5-[4-(oxetan-3-yl)piperazin-1-yl]phenyl]-1,2,4-triazol-3-amine], under setting [4], the fold induction at 1 µM is 1000 to 10000 and the fold induction at 10 µM was not above 1.
In the case of `CCc1cc(Nc2ncn(-c3ccc(F)c(C)c3)n2)cc(N2CCN(C3COC3)CC2)c1` [Compound 829, N-[3-ethyl-5-[4-(oxetan-3-yl)piperazin-1-yl]phenyl]-1-(4-fluoro-3-methyl-phenyl)-1,2,4-triazol-3-amine], under setting [3], the fold induction at 1 µM fell in the range of 1 to 10 and the fold induction at 10 µM was not above 1.
With `Cc1cc(Nc2ncn(-c3cc(F)cc(F)c3)n2)nc(N2CCN(C3CCOC3)CC2)c1` (stereo not drawn) [Compound 562, N-[1-(3,5-difluorophenyl)-1,2,4-triazol-3-yl]-4-methyl-6-(4-tetrahydrofuran-3-ylpiperazin-1-yl)pyridin-2-amine], under setting [4], the fold induction at 1 µM was in the range of 1 to 10 and the fold induction at 10 µM is 1 to 10.
